The pKi is −log10 of the Ki, conventionally taken in molar units.

One experiment has as its target T1, human σ2/TMEM97 receptor (Homo sapiens, UniProt Q5BJF2).
T1 construct: expressed in transfected cells; host or cells: HEK-293
In words: Binding assay to human σ2/TMEM97 receptor ([3H]-DTG). The settings on record: transfected HEK-293 membranes, 10 nM [3H]-DTG, 25° C., 120 minutes; read-out: Binding σ-[…] (binding to σ2-receptor expressed as Ki). The method in brief: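 Membranes from transfected HEK-293 cells incubated with 10 nM [3H]-DTG in 50 mM Tris-HCl pH 8.0, 120 min at 25 °C; non-specific binding defined with 10 μM haloperidol. Bound radioactivity counted after filtration; compounds tested as % inhibition at 1 or 10 μM or at five concentrations for Ki.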

The target of the next experiment is T2, human σ1 receptor (Homo sapiens, UniProt Q99720).
T2 construct: expressed in transfected cells; host or cells: HEK-293
T2 sequence (Q99720 whole entry): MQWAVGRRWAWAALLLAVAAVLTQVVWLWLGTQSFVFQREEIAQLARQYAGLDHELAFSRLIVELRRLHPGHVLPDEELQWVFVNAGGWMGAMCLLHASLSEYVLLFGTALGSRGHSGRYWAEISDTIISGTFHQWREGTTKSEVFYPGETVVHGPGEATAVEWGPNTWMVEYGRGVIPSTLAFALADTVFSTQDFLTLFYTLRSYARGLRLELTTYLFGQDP
As to the kind of experiment: Human σ1 receptor radioligand assay ([3H](+)-pentazocine). Type of experiment: binding. The settings on record: transfected HEK-293 membranes, 5 nM [3H](+)-pentazocine, 37° C., 120 minutes; read-out: Binding σ-[…] (binding to σ1-receptor expressed as Ki). The method, boiled down: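 Binding used [3H](+)-pentazocine, 120 min at 37° C, with non-specific binding defined by 10 μM haloperidol. Bound radioligand was collected by filtration, washed with ice-cold 10 mM Tris-HCl pH 7.4 and counted by scintillation.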

pKi: −log10 of the molar value.

T1 sequence (Q5BJF2 whole entry): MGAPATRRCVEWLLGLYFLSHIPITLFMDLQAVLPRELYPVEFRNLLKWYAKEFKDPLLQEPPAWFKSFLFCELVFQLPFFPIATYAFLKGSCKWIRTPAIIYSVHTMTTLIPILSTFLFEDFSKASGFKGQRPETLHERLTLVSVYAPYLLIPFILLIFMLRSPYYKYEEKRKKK

Consider `CN(Cc1ccccc1)[C@H]1CC[C@@H](NC(=O)N2CC(C)(C)c3ncccc32)CC1` [Example 72, N-((1s,4s)-4-(benzyl(methyl)amino)cyclohexyl)-3,3-dimethyl-2,3-dihydro-1H-pyrrolo[3,2-b]pyridine-1-carboxamide], for which the pKi at human σ2/TMEM97 receptor and at human σ1 receptor was over 7.00 in each case.

With `Cc1ccc2c(n1)C(C)(C)CN2C(=O)N1CCC(N(C)Cc2ccccn2)CC1` [Example 73, (4-(methyl(pyridin-2-ylmethyl)amino)piperidin-1-yl)(3,3,5-trimethyl-2,3-dihydro-1H-pyrrolo[3,2-b]pyridin-1-yl)methanone], the pKi on human σ2/TMEM97 receptor is 6.00 to 6.30; at human σ1 receptor it was under 6.00.

For the compound `Cc1ccc2c(n1)C(C)(C)CN2C(=O)N1CCC(N(C)Cc2cccnc2)CC1` [Example 74, (4-(methyl(pyridin-3-ylmethyl)amino)piperidin-1-yl)(3,3,5-trimethyl-2,3-dihydro-1H-pyrrolo[3,2-b]pyridin-1-yl)methanone], the pKi on human σ2/TMEM97 receptor was 6.00 to 6.30; on human σ1 receptor it was under 6.00.

With `Cc1ccc2c(n1)C(C)(C)CN2C(=O)N1CCC(N(C)Cc2ccncc2)CC1` [Example 75, (4-(methyl(pyridin-4-ylmethyl)amino)piperidin-1-yl)(3,3,5-trimethyl-2,3-dihydro-1H-pyrrolo[3,2-b]pyridin-1-yl)methanone], the pKi was 6.00 to 6.30 on human σ2/TMEM97 receptor and under 6.00 at human σ1 receptor.

For `CN(Cc1cc(F)cc(C#N)c1)C1CCN(C(=O)N2CC(C)(C)c3ncccc32)CC1` [Example 76, 3-(((1-(3,3-dimethyl-2,3-dihydro-1H-pyrrolo[3,2-b]pyridine-1-carbonyl)piperidin-4-yl)(methyl)amino)methyl)-5-fluorobenzonitrile], the pKi is 6.00 to 6.30 at human σ2/TMEM97 receptor and under 6.00 on human σ1 receptor.

Consider `CN(Cc1cc(C#N)ccc1F)C1CCN(C(=O)N2CC(C)(C)c3ncccc32)CC1` [Example 77, 3-(((1-(3,3-dimethyl-2,3-dihydro-1H-pyrrolo[3,2-b]pyridine-1-carbonyl)piperidin-4-yl)(methyl)amino)methyl)-4-fluorobenzonitrile], for which the values for the pKi on human σ2/TMEM97 receptor and at human σ1 receptor were 6.30 to 7.00 and under 6.00, respectively.

On to `CN(Cc1ccccc1)[C@H]1CC[C@H](N(C)C(=O)N2CC(C)(C)c3ncccc32)CC1` [Example 78, N-((1r,4r)-4-(benzyl(methyl)amino)cyclohexyl)-N,3,3-trimethyl-2,3-dihydro-1H-pyrrolo[3,2-b]pyridine-1-carboxamide], for which the results for the pKi on human σ2/TMEM97 receptor and at human σ1 receptor were over 7.00 and 6.00 to 6.30, respectively.

Turning to `CN(Cc1ccc(F)c(F)c1)C1CCN(C(=O)N2CC(C)(C)c3ncccc32)CC1` [Example 79, (4-((3,4-Difluorobenzyl)(methyl)amino)piperidin-1-yl)(3,3-dimethyl-2,3-dihydro-1H-pyrrolo[3,2-b]pyridin-1-yl)methanone], the pKi at human σ2/TMEM97 receptor was over 7.00; on human σ1 receptor, 6.30 to 7.00.

Turning to `Cc1ccc2c(n1)C(C)(C)CN2C(=O)N1CCC2(CCN(Cc3ccccc3)CC2)C1` [Example 80, (8-benzyl-2,8-diazaspiro[4.5]decan-2-yl)(3,3,5-trimethyl-2,3-dihydro-1H-pyrrolo[3,2-b]pyridin-1-yl)methanone], the negative-log Ki (pKi) is over 7.00 on human σ2/TMEM97 receptor and 6.30 to 7.00 at human σ1 receptor.

For `Cc1ccc2c(n1)C(C)(C)CN2C(=O)N1CC2(CN(Cc3ccccc3)C2)C1` [Example 81, (6-benzyl-2,6-diazaspiro[3.3]heptan-2-yl)(3,3,5-trimethyl-2,3-dihydro-1H-pyrrolo[3,2-b]pyridin-1-yl)methanone], the pKi was 6.00 to 6.30 at human σ2/TMEM97 receptor and over 7.00 at human σ1 receptor.

Take `Cc1ccc2c(n1)C(C)(C)CN2C(=O)NCC1CN(Cc2ccccc2)C1` [Example 82, N-((1-benzylazetidin-3-yl)methyl)-3,3,5-trimethyl-2,3-dihydro-1H-pyrrolo[3,2-b]pyridine-1-carboxamide]: the pKi at human σ2/TMEM97 receptor is over 7.00; at human σ1 receptor, 6.30 to 7.00.

Values taken from patent publication US20240174671A1, “New 2,3-Dihydro-1H-pyrrolo[3,2-b]pyridine Derivatives as Sigma Ligands” (ACONDICIONAMIENTO TARRASENSE, priority 2021, published 2024).
